The values that follow come from US20150266878A1, “NOVEL BI-RING PHENYL-PYRIDINES/PYRAZINES FOR THE TREATMENT OF CANCER” (HOFFMANN-LA ROCHE INC., priority 2012, published 2015).

Usually IC50 stands for the concentration needed to halve the response being measured. High values mean a need for much substance, low ones inhibition by little substance.

T1 sequence (P49336 whole entry): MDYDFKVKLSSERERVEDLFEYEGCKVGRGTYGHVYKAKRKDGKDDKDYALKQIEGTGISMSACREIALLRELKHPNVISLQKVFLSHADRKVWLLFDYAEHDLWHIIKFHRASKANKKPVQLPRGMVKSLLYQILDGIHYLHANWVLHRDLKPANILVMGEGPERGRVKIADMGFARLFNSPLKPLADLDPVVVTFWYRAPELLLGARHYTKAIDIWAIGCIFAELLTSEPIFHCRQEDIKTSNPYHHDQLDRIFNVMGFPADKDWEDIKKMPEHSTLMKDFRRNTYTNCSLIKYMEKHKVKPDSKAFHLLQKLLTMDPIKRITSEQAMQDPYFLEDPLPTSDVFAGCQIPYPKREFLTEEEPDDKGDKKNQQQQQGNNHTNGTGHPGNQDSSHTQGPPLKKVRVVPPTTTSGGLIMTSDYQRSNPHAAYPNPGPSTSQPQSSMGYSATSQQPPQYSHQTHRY
T1 sequence (P24863 whole entry partner): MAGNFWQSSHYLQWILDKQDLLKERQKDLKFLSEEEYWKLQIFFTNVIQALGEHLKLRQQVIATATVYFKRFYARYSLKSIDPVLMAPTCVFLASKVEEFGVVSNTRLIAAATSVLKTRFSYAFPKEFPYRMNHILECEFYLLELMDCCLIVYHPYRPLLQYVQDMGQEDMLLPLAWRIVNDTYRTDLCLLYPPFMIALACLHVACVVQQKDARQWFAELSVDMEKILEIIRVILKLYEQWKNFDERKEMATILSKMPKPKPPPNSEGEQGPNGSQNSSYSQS

The assay concerns the target T1, CDK8/Cyclin C (Homo sapiens, UniProt P49336).
T1 construct: purchased Invitrogen PV4402
Nature of the assay: CDK8/Cyclin C LANCE TR-FRET kinase assay. Type of assay: biochemical. Conditions: CDK8/Cyclin C 10 nM, ATP 24 μM, Ulight-GS peptide 80 nM, 37° C. 30 mins. From the text:
CDK8/Cyclin C LANCE TR-FRET Kinase Assay:
The biological activity of the compounds of the invention can be determined using the assay described below.
CDK8/Cyclin C protein was obtained from Invitrogen, cat #PV4402. ULight-Glycogen Synthase (Ulight-GS) peptide with sequence PASVPPSPSLSRHSSPHQ(pS)ED, and Europium-anti-phospho Glycogen Synthase (Ser641) [Eu-anti-P-GS (Ser641)] were obtained from Perkin Elmer, cat #TRF0131-M and cat #TRF0220. Adenosine-5′-triphosphate (ATP) was obtained from Invitrogen, cat #PV3227.
A mixture of (1) a compound of formula I, (2) substrate [Ulight-GS peptide (80 nM) and ATP (24 μM)], and (3) CDK8/Cyclin C (10 nM) in reaction buffer (50 mM Hepes, pH7.0, 10 mM MgCl2, 1 mM EGTA, 0.2 mg/mL BSA, 0.8 mM DTT) were incubated at 37° C. for 30 mins. Then, [Eu-anti-P-GS (Ser641)] (1.5 nM) was added. Following incubation at room temperature for 30 mins, the TR-FRET signals were detected using Envision reader (Ex 340 nm, Em 615 nm and 665 nm) from Perkin Elmer. The reactivity in percentage of inhibition or dose response was analyzed with GraphPad Prism 5 (GraphPad Software).
A general note: TR-FRET usually uses a lanthanide donor and a delayed reading to cut background.
`CC1(C)C(=O)Nc2ccc(-c3cncc(NC(C(N)=O)c4ccccc4)c3)cc21` (stereo not drawn) [Example 32, 2-[5-(3,3-Dimethyl-2-oxo-2,3-dihydro-1H-indol-5-yl)-pyridin-3-ylamino]-2-phenyl-acetamide] had a half-maximal inhibitory concentration (IC50) of 813 nM. The compound `NC(=O)C(Nc1cncc(-c2ccc3c(c2)CCC(=O)N3)c1)c1ccccc1` (stereo not drawn) [Example 33, 2-[5-(2-Oxo-1,2,3,4-tetrahydro-quinolin-6-yl)-pyridin-3-ylamino]-2-phenyl-acetamide] showed an IC50 of 1890 nM. This IC50 is about 2.3-fold higher than that of the compound before. Next, `NC(=O)C(Nc1cncc(-c2cc3c(cc2F)NC(=O)CC3)c1)c1ccccc1` (stereo not drawn) [Example 34, 2-[5-(7-Fluoro-2-oxo-1,2,3,4-tetrahydro-quinolin-6-yl)-pyridin-3-ylamino]-2-phenyl-acetamide]: 1400 nM. For `NC(=O)C(Nc1cncc(-c2ccc3c(c2)OCO3)c1)c1ccccc1` (stereo not drawn) [Example 35, 2-(5-Benzo[1,3]dioxol-5-yl-pyridin-3-ylamino)-2-phenyl-acetamide], the half-maximal inhibitory concentration (IC50) worked out at 559 nM. The result for `NC(=O)C(Nc1cncc(-c2ccc3c(c2)OCCO3)c1)c1ccccc1` (stereo not drawn) [Example 36, 2-[5-(2,3-Dihydro-benzo[1,4]dioxin-6-yl)-pyridin-3-ylamino]-2-phenyl-acetamide] reads 2510 nM; that for `NC(=O)C(Nc1cncc(-c2ccc3[nH]ncc3c2)c1)c1ccccc1` (stereo not drawn) [Example 37, 2-[5-(1H-Indazol-5-yl)-pyridin-3-ylamino]-2-phenyl-acetamide], 3.4 nM; that for `NC(=O)[C@H](Nc1cncc(-c2ccc3[nH]ncc3c2)c1)c1ccccc1` [Example 38, (R)-2-[5-(1H-Indazol-5-yl)-pyridin-3-ylamino]-2-phenyl-acetamide], 0.9 nM. For the compound `NC(=O)[C@@H](Nc1cncc(-c2ccc3[nH]ncc3c2)c1)c1ccccc1` [Example 39, (S)-2-[5-(1H-indazol-5-yl)-pyridin-3-ylamino]-2-phenyl-acetamide], half-maximal inhibition (IC50) required 8.8 nM. Next, `CC(=O)NC[C@H](Nc1cncc(-c2ccc3[nH]ncc3c2)c1)c1ccccc1` [Example 40, N-{(R)-2-[5-(1H-Indazol-5-yl)-pyridin-3-ylamino]-2-phenyl-ethyl}-acetamide]: 1.8 nM; `CS(=O)(=O)NC[C@H](Nc1cncc(-c2ccc3[nH]ncc3c2)c1)c1ccccc1` [Example 41, N-{(R)-2-[5-(1H-Indazol-5-yl)-pyridin-3-ylamino]-2-phenyl-ethyl}-methanesulfonamide]: 0.3 nM. `NC(=O)C(Nc1cncc(-c2ccc3[nH]nc(F)c3c2)c1)c1ccccc1` (stereo not drawn) [Example 42, 2-[5-(3-Fluoro-1H-indazol-5-yl)-pyridin-3-ylamino]-2-phenyl-acetamide] registered an IC50 of 3.5 nM.

On to `CCC(=O)NC[C@H](Nc1cncc(-c2ccc3[nH]nc(F)c3c2)c1)c1ccccc1` [Example 43, N-{(R)-2-[5-(3-Fluoro-1H-indazol-5-yl)-pyridin-3-ylamino]-2-phenyl-ethyl}-propionamide], for which the IC50 was determined as 2.3 nM.

With `CC(C)C(=O)NC[C@H](Nc1cncc(-c2ccc3[nH]nc(F)c3c2)c1)c1ccccc1` [Example 44, N-{(R)-2-[5-(3-Fluoro-1H-indazol-5-yl)-pyridin-3-ylamino]-2-phenyl-ethyl}-isobutyramide], the IC50 was 3.1 nM. On to `COCCNC[C@H](Nc1cncc(-c2ccc3[nH]nc(F)c3c2)c1)c1ccccc1` [Example 45, (R)-N^1-[5-(3-Fluoro-1H-indazol-5-yl)-pyridin-3-yl]-N^2-(2-methoxy-ethyl)-1-phenyl-ethane-1,2-diamine], for which it took 29.5 nM to reach half-maximal inhibition (IC50). `O=C(CO)NC[C@H](Nc1cncc(-c2ccc3[nH]nc(F)c3c2)c1)c1ccccc1` [Example 46, N-{(R)-2-[5-(3-Fluoro-1H-indazol-5-yl)-pyridin-3-ylamino]-2-phenyl-ethyl}-2-hydroxy-acetamide] showed a concentration for half-maximal inhibition (IC50) of 2.4 nM. `OCCNC[C@H](Nc1cncc(-c2ccc3[nH]nc(F)c3c2)c1)c1ccccc1` [Example 47, 2-{(R)-2-[5-(3-Fluoro-1H-indazol-5-yl)-pyridin-3-ylamino]-2-phenyl-ethylamino}-ethanol] yielded a half-maximal inhibitory concentration (IC50) of 15 nM. Compared with the last compound, the IC50 is about 6.2-fold higher. Next, `Cc1n[nH]c2ccc(-c3cncc(N[C@@H](C(N)=O)c4ccccc4)c3)cc12` [Example 48, (R)-2-[5-(3-Methyl-1H-indazol-5-yl)-pyridin-3-ylamino]-2-phenyl-acetamide]: 1.6 nM. In turn, `Cc1n[nH]c2ccc(-c3cncc(N[C@H](C(N)=O)c4ccccc4)c3)cc12` [Example 49, (S)-2-[5-(3-Methyl-1H-indazol-5-yl)-pyridin-3-ylamino]-2-phenyl-acetamide] came in with an IC50 of 4.2 nM. Compound `Cc1n[nH]c2ccc(-c3cncc(NC(CNS(C)(=O)=O)c4ccccc4)c3)cc12` (stereo not drawn) [Example 50, N-{2-[5-(3-Methyl-1H-indazol-5-yl)-pyridin-3-ylamino]-2-phenyl-ethyl}-methanesulfonamide] gave an IC50 of 2.8 nM. Compared with the last compound, the IC50 is about 1.5-fold lower. As for `Cc1n[nH]c2ccc(-c3cncc(N[C@@H](CNS(=O)(=O)C4CC4)c4ccccc4)c3)cc12` [Example 51, Cyclopropanesulfonic acid {(R)-2-[5-(3-methyl-1H-indazol-5-yl)-pyridin-3-ylamino]-2-phenyl-ethyl}-amide], the midpoint of inhibition, the IC50, lay at 2.1 nM.

`Cc1n[nH]c2ccc(-c3cncc(N[C@@H](CNS(C)(=O)=O)c4ccccc4)c3)cc12` [Example 52, N-{(R)-2-[5-(3-Methyl-1H-indazol-5-yl)-pyridin-3-ylamino]-2-phenyl-ethyl}-methanesulfonamide]: the IC50 was found to be 0.8 nM. In turn, `COCCS(=O)(=O)NC[C@H](Nc1cncc(-c2ccc3[nH]nc(C)c3c2)c1)c1ccccc1` [Example 53, 2-Methoxy-ethanesulfonic acid {(R)-2-[5-(3-methyl-1H-indazol-5-yl)-pyridin-3-ylamino]-2-phenyl-ethyl}-amide] gave an IC50 of 1.7 nM. For `Cc1n[nH]c2ccc(-c3cncc(N[C@@H](CNC(=O)CO)c4ccccc4)c3)cc12` [Example 54, 2-Hydroxy-N-{(R)-2-[5-(3-methyl-1H-indazol-5-yl)-pyridin-3-ylamino]-2-phenyl-ethyl}-acetamide], half-maximal inhibition (IC50) was put at 1.2 nM. In the case of `COCCNC[C@H](Nc1cncc(-c2ccc3[nH]nc(C)c3c2)c1)c1ccccc1` [Example 55, (R)-N^2-(2-Methoxy-ethyl)-N^1-[5-(3-methyl-1H-indazol-5-yl)-pyridin-3-yl]-1-phenyl-ethane-1,2-diamine], the IC50 stood at 9.5 nM.

The compound `Cc1n[nH]c2ccc(-c3cncc(N[C@@H](CNCCO)c4ccccc4)c3)cc12` [Example 56, 2-{(R)-2-[5-(3-Methyl-1H-indazol-5-yl)-pyridin-3-ylamino]-2-phenyl-ethylamino}-ethanol] showed an IC50 of 5 nM.

`Cc1n[nH]c2ccc(-c3cncc(N[C@@H](CNC(=O)C4CCCCC4)c4ccccc4)c3)cc12` [Example 57, Cyclohexanecarboxylic acid {(R)-2-[5-(3-methyl-1H-indazol-5-yl)-pyridin-3-ylamino]-2-phenyl-ethyl}-amide] came in with an IC50 of 5.3 nM. Regarding `Cc1n[nH]c2ccc(-c3cncc(N[C@@H](CNC(=O)c4ccccc4)c4ccccc4)c3)cc12` [Example 58, N-{(R)-2-[5-(3-Methyl-1H-indazol-5-yl)-pyridin-3-ylamino]-2-phenyl-ethyl}-benzamide], the IC50 is 6 nM.
